Consider two sequences from patent US10150948B2, “Compositions and methods for producing and administering brown adipocytes” (The Regents of the University of California, priority 2013, dated 2018).

Test [1] deals with WAT derived ADMSCs. The experiment in a line: Neutral lipid staining of ADMSCs differentiated on adhesion peptide coated TCPS. The note with it: neutral lipid staining after differentiation on peptide coated TCPS. It is filed as cell-based, mouse. The method, then:
Fat depots from L2G85 (FVB/NJ) or C57BL6/J mice, perigonadal (visceral) or inguinal (subcutaneous) respectively, were isolated post mortem from 3 month old mice. These fat depots were washed with sterile phosphate buffered saline (PBS) for 10 minutes. The tissues were then minced with scissors into fragments smaller than 1 mm and digested in 0.1% type II collagenase (Gibco) in DMEM with 5% bovine serum albumin (BSA) (Fisher) for 1 hr at room temperature (RT) on an orbital shaker. The digest was then filtered through sterile gauze and centrifuged at 400×RCF for 10 minutes. The cell pellet was then suspended in an erythrocyte lysis buffer 155 mM NH4Cl, 5.7 mM K2HPO4, 0.1 mM EDTA in ultrapure water for 10 m minutes. The resulting suspension was then centrifuged at 400×RCF for 10 minutes to pellet the ADMSCs. The resulting ADMSC pellet was suspended in DMEM with 10% fetal bovine serum (FBS) and 1% P/S and plated on TCPS. […]
FIGS. 1A-F: Effects of adhesion ligands ADMSC differentiation. […] C) Quantitative rtPCR analysis of UCP1 expression of WAT derived murine ADMSCs that were differentiated on indicated adhesion substrate coated TCPS (see Tab. […] D) Quantitative rtPCR analysis of UCP1 expression of WAT derived ADMSCs differentiated on mixtures of Ag73 and C16 (n=6). […] F) Quantitative rtPCR analysis of UCP1 expression of WAT derived ADMSCs differentiated on mixtures of Ag73 and Ag32 (n=6).

The subject of test [2] is WAT derived murine ADMSCs. The test is described as follows: UCP1 expression (quantitative rtPCR) of ADMSCs differentiated on adhesion peptide coated TCPS. It is filed as cell-based, mouse. The settings on record: ADMSCs differentiated on single peptide coated TCPS; vs uncoated TCPS. On the procedure: Fat depots from L2G85 (FVB/NJ) or C57BL6/J mice, perigonadal (visceral) or inguinal (subcutaneous) respectively, were isolated post mortem from 3 month old mice. These fat depots were washed with sterile phosphate buffered saline (PBS) for 10 minutes. The tissues were then minced with scissors into fragments smaller than 1 mm and digested in 0.1% type II collagenase (Gibco) in DMEM with 5% bovine serum albumin (BSA) (Fisher) for 1 hr at room temperature (RT) on an orbital shaker. The digest was then filtered through sterile gauze and centrifuged at 400×RCF for 10 minutes. […]
Purified peptides were suspended at 20 μM in ultrapure water with 1% P/S. In 24 well TC plates (BD Falcon, 353047), 20 μM peptide suspensions were added to each well. […] The adherent and non adherent cells were then counted with the CyQuant kit (Invitrogen).
Tissue samples suspended in RNALater ICE (Ambion) and stored at −20° C. mRNA was isolated from RNALater ICE stabilized tissues or directly from in vitro cultures of monolayers or cell laden hydrogels with Trizol reagent (Ambion). […] Established delta delta CT method was employed to comparatively assess mRNA quantity. […]
FIGS. 1A-F: Effects of adhesion ligands ADMSC differentiation. […] C) Quantitative rtPCR analysis of UCP1 expression of WAT derived murine ADMSCs that were differentiated on indicated adhesion substrate coated TCPS (see Tab. […]

For the sequence “CGGKAFDITYVRLKF [C16, α5β1/3 integrin-engaging ligand, laminin γ1 chain peptide with N-terminal CGG]”, the lipid accumulation result in test [1] is “significantly greater lipid accumulation”.
“CGGRKRLQVQLSIRT [AG73, adhesion ligand for α6 integrins and syndecan-1, laminin a1 chain peptide with N-terminal CGG]”: the UCP1 expression entry in test [2] is reported as “particularly efficient in driving UCP1 expression”.
